Reference: patent US5418160A, “Cloned cell line expressing rat β3A adrenergic receptor” (The United States as represented by the Secretary of the …, priority 1991, dated 1995)
pEC50, pKd: −log10 of the molar value. Read-outs that look alike come from different tables or passages of the source.

Assays:
brown adipocytes = details: Arch et al., read-out: EC50 for increases in lipolysis; cited from earlier work
β1 -adrenergic receptors = details: read-out: KD for [125I]-ICYP binding to β1-adrenergic receptors; cited from earlier work
β2 -adrenergic receptors = details: read-out: KD for [125I]-ICYP binding to β2-adrenergic receptors; cited from earlier work
β3 -adrenergic receptor = details: read-out: KD reported for [125I]-ICYP binding to the β3-adrenergic receptor; Emorine et al.; cited from earlier work
[1] = target: T1, fat cell β receptor (β3A -adrenergic receptor) (Rattus norvegicus, UniProt P26255); assay: Inhibition of BRL 37344-induced cAMP accumulation in transfected CHO cells; format: cell-based; details: read-out: inhibition of BRL 37344-induced cAMP accumulation
T1 construct: expressed in transfected cells
T1 sequence (P26255 whole entry): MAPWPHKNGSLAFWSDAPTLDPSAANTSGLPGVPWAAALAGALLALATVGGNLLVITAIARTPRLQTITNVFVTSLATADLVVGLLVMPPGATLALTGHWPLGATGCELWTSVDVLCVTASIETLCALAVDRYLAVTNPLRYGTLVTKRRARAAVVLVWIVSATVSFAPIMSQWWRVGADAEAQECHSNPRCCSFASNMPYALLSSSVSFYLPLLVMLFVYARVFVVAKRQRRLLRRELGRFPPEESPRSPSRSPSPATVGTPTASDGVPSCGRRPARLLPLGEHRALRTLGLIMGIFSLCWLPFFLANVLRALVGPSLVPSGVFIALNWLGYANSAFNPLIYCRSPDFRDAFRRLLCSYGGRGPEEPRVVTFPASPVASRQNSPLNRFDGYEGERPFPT
Source text: Using a protocol for cotransfection of CHO cells (a 1.5 kb fragment was excised from pBluescript using Saci (present in the multiple cloning site of the vector) and BamHI and inserted into the Sac/BamH/sites of PSVL (Pharmacie). CHO-K1 cells were cotransfected with pSVL and pMSVneo (neomycin resistance plasmid) F. Z. Chung, C. D. Wang, P. C. Potter, J. C. Venter and C. M. Fraser, J. Biol. Chem. 263, 4052 (1988) using the CaPO4 precipitation technique. Stable transfectants were obtained by growth of the cells in culture medium containing Geneticin (500 μg/ml); colonies derived from single cells were isolated and expanded.

Row | Structure (SMILES) | pEC50 (brown adipocytes) | inhibition at 100 µM ([1]; CHO) [%] | also measured
1 | CC(Cc1ccc(OCC(=O)O)cc1)NCC(O)c1cccc(Cl)c1 (centres unmarked) [BRL 37344] | 8.77 | – | –
2 | CC(C)(C)NCC(O)COc1cccc2[nH]c(C#N)c([125I])c12 (centres unmarked) [[^125 1]-ICYP, [^125 1]-iodocyanopindolol] | – | – | pKd (β1 -adrenergic receptors): 10.96; pKd (β2 -adrenergic receptors): 10.52; pKd (β3 -adrenergic receptor): 9.30
3 | C=CCc1ccccc1OCC(O)CNC(C)C (centres unmarked) [alprenolol] | – | – | inhibition at 100 µM ([1]; antagonist at 10^-4 M, transfected CHO cells): 52%
4 | CC(C)NCC(O)COc1ccc(CC(N)=O)cc1 (centres unmarked) [atenolol] | – | 30 | –
5 | CC(C)NCC(O)c1ccc(O)c(O)c1 (centres unmarked) [isoproterenol] | 8.10 | – | –
6 | COCCc1ccc(OCC(O)CNC(C)C)cc1 (centres unmarked) [metoprolol] | – | 70 | –
